{"source": "patent US20190365745A1", "about": "“USE OF CHRONIC TREATMENT WITH ATR INHIBITORS TO SENSITIZE CANCER CELLS TO PARP INHIBITORS” (Cornell University, priority 2018, published 2019)", "assay_type_in_all_cases": "cell-based, Human", "key": {"U2OS cells [1]": {"test_system": "U2OS cells", "experiment": "Real time PCR of mRNA levels", "conditions": "normalized to GAPDH", "excerpt": "FIG. 9B is a bar graph showing the analysis of HR-mediated repair using the DR-GFP system. Relative fold change of GFP positive U2OS cells treated with CHK1i compared to DMSO treatment control. (Error bars=SEM, N=4, ****P-value<0.0001; one sample-t-test was used for the statistical analysis). FIGS. 9C-9D show a histogram showing representative FACS data (FIG. 9C) and a bar graph showing quantitation of G1, S and G2/M population for cell cycle analysis of CHK1i treated cells (FIG. 9D) (Error bars=SD, N=3). FIG. 9E are bar graphs showing real time PCR analysis of total RNA extracted from U2OS cells treated with DMSO, ATRi (5 μM for 8 days) or CHK1i (0.2 μM for 5 days). Values were normalized to GAPDH mRNA levels. (Error bars=SD, N=3). FIG. 9F is a schematic diagram showing a proposed model of how E2F transcription is regulated through ATR-CHK1 signaling. […] FIG. 9H is a bar graph showing DR-GFP analysis of 293-T-REX-E2F6 cells after 8 days of treatment with DMSO or doxycycline. (Error bars=SEM, N=4). FIG. 9I is a histogram showing cell cycle analysis of 293-T-REX-E2F6 cells after 8 days of treatment with DMSO or doxycycline. FIG. 9J is a schematic diagram showing a model depicting multiple roles of ATR in the control of HR capacity.\nCells cultured from 10 cm dish were collected and lysed in 1 ml of TRIzol (Invitrogen). Chloroform was added to the lysed sample to separate RNA. Separated RNA was precipitated by isopropyl alcohol, followed by two washes with 75% ethanol. 1 μg of extracted RNA from each sample was then reverse transcribed with Bio-Rad iScript cDNA synthesis kit. The samples (˜100 ng) were analyzed in a Roche 480 light cycler in a total of 15 μl containing SYBR green mix and primers. The values were calculated using “absolute quantification/2nd derivative max” in lightcycler 480 program and then normalized to the level of GAPDH."}, "U2OS cancer cells": {"test_system": "U2OS cancer cells", "experiment": "Crystal violet staining survival assay", "conditions": "after 8 days of treatment, 2 or 8 days drug-free", "experimental": "First, cells were treated for 5 days with either DMSO or 5 μM ATR inhibitor. Next, 1×10^5 cells of each cell type were plated onto a 10 cm dish and further treated with DMSO, ATR inhibitor and/or PARP inhibitor for additional 3 days. Cells were either fixed or allowed to recover after additional 2 or 8 days in drug-free media.\nFirst, hTERT RPE-1, U2OS, HCT116, HeLa, A2780, or U87 cells were treated for 5 days with either DMSO or 5 μM ATR inhibitor. Next, 1×10^5 cells of each cell type were plated onto a 10 cm dish and further treated with DMSO, ATR inhibitor, and/or PARP inhibitor for an additional 3 days. Cells were then washed with PBS and either fixed in 100% methanol for 15 minutes at 4° C. or fixed after additional 2 or 8 days of culture in drug-free media. Fixed plates were stained with 0.1% crystal violet solution overnight followed by a distilled water wash. Pictures were taken after the plates were dried. For quantitation of cell viability, total viable cells were counted using a hematocytometer after indicated treatment."}, "U2OS cells [2]": {"test_system": "U2OS cells", "experiment": "Cell cycle analysis (propidium iodide, flow cytometry)", "conditions": "chronic 5 μM ATRi", "protocol": "Cells were harvested by standard trypsinization and fixed with 70% ethanol. After fixation, cells from each sample were resuspended in PBS, permeabilized using 0.1% Triton X-100 and treated with RNase A (0.8 mg/ml). Then cells were stained with propidium iodide and analyzed by flow cytometry using FACSAria Fusion (BD) or Accuri C6 cytometer (BD) to determine the fraction of cells in different stages of the cell cycle."}, "U2OS cells [3]": {"test_system": "U2OS cells", "experiment": "DNA damage in cells undergoing chronic ATR inhibition alone"}, "U2OS cells [4]": {"test_system": "U2OS cells", "experiment": "SILAC/MS proteomic analysis of nuclear proteins (protein abundance)", "conditions": "U2OS nuclear proteome; 5 μM ATRi, 8 days vs untreated", "protocol": "FIG. 5A is a schematic diagram of the SILAC/MS experiment. FIG. 5B is a quadrant diagram of the SILAC/MS experiment. Each dot represents a different identified protein. Proteins with abundance reduced two-fold or more after ATRi treatment are shown in the upper-left corner (white quadrant). FIG. 5C is a WB analysis of U2OS cells after 8 days of chronic treatment with 5 μM of ATRi or ATMi. FIG. 5D is a time course WB analysis of U2OS cells during chronic treatment with 5 μM ATRi. FIG. 5E is a WB analysis of U2OS cells at distinct cell cycle stages. Cells were treated with 1 mM hydroxyurea (HU) or 50 ng/ml nocodazole (Noc) for 24 hours. HU treated cells were released for 2.5 hours in HU-free media. FIG. 5F is a WB analysis of U2OS cells untreated or treated for 8 days with 5 μM ATRi.\nFor quantitative proteomic analysis, U2OS cells chronically treated with DMSO or ATR inhibitor were cultured, respectively, in “light” or “heavy” SILAC DMEM media (ThermoFisher Scientific 88425) supplemented with 10% dialyzed FBS and penicillin/streptomycin. “Light” SILAC media was supplemented with “light” (normal) arginine ^12C6, […], while “heavy” SILAC media contained “heavy” lysine ^13C6, ^15N2 and “heavy” arginine ^13C6, ^15N4. […] HILIC fractions were dried and reconstituted in 0.1% trifluoroacetic acid and analyzed using a Q-Exactive Orbitrap and Lumos mass spectrometer. […]"}}, "note": "“Also recorded” adds a separate entry of the source.", "data": [{"smiles": "CS(=O)(=O)c1ccc(-c2cnc(N)c(C(=O)Nc3ccccc3)n2)cc1", "note": "[ATRi, VE-821]", "values": [{"measurement": "mRNA levels of BRCA1 and RAD51", "setting": "U2OS cells [1]; ATRi 5 μM 8 days or CHK1i 0.2 μM 5 days", "result": "reduction in the mRNA levels of BRCA1 and RAD51"}, {"measurement": "mRNA levels of 53BP1", "setting": "U2OS cells [1]; ATRi 5 μM 8 days", "result": "major changes in the mRNA levels of 53BP1 were not observed"}, {"measurement": "Recovery in drug-free media (crystal violet)", "setting": "U2OS cancer cells", "result": "recovered after switching to drug-free media"}, {"measurement": "Cell cycle distribution (S-phase cells)", "setting": "U2OS cells [2]", "result": "minor increase in the number of S-phase cells; also recorded: slight increase in S phase cells"}, {"measurement": "DNA damage", "setting": "U2OS cells [3]", "result": "not detectable"}, {"measurement": "Abundance of proteins required for HR-mediated repair, including BRCA1 and FANCJ (SILAC/MS)", "setting": "U2OS cells [4]", "result": "reduced"}]}]}
